Reference: the NIST ThermoML archive (doi:10.1021/je500804j)

Assay: mn = molality of the nth substance listed, in mol/kg
Details: 101 kPa, Liquid, Alternating current cell with electrodes

CCCCCCCC[N+](C)(C)CCCCCCCCCCCC[N+](C)(C)CCCCCCCC.[Br-].[Br-] + O
Details	electrical conductivity [S/m]
288.15 K, m1 = 0.00524	0.0948
288.15 K, m1 = 0.00825	0.1292
288.15 K, m1 = 0.01026	0.1522
288.15 K, m1 = 0.01325	0.1863
288.15 K, m1 = 0.01696	0.2286
288.15 K, m1 = 0.01986	0.2617
288.15 K, m1 = 0.02257	0.2928
288.15 K, m1 = 0.02469	0.3169
288.15 K, m1 = 0.0276	0.3349
288.15 K, m1 = 0.03026	0.3455
288.15 K, m1 = 0.03258	0.3547
288.15 K, m1 = 0.03485	0.3637
288.15 K, m1 = 0.03697	0.3722
288.15 K, m1 = 0.03965	0.3828
288.15 K, m1 = 0.0414	0.3897
288.15 K, m1 = 0.04287	0.3956
288.15 K, m1 = 0.04499	0.404
288.15 K, m1 = 0.04668	0.4107
288.15 K, m1 = 0.04802	0.416
288.15 K, m1 = 0.04996	0.4237
288.15 K, m1 = 0.05094	0.4276
288.15 K, m1 = 0.05281	0.435
288.15 K, m1 = 0.0543	0.441
288.15 K, m1 = 0.0552	0.4446
288.15 K, m1 = 0.05651	0.4497
288.15 K, m1 = 0.05808	0.456
288.15 K, m1 = 0.05949	0.4616
288.15 K, m1 = 0.06045	0.4654
288.15 K, m1 = 0.06136	0.469
288.15 K, m1 = 0.06193	0.4713
293.15 K, m1 = 0.00394	0.05156
293.15 K, m1 = 0.00765	0.1034
293.15 K, m1 = 0.01114	0.1525
293.15 K, m1 = 0.01444	0.1943
293.15 K, m1 = 0.01756	0.229
293.15 K, m1 = 0.02051	0.2582
293.15 K, m1 = 0.02331	0.2806
293.15 K, m1 = 0.02597	0.3012
293.15 K, m1 = 0.0285	0.316
293.15 K, m1 = 0.03091	0.3286
293.15 K, m1 = 0.0332	0.3423
293.15 K, m1 = 0.03539	0.3542
293.15 K, m1 = 0.03749	0.3651
293.15 K, m1 = 0.03949	0.3739
293.15 K, m1 = 0.0414	0.3836
293.15 K, m1 = 0.04323	0.3916
293.15 K, m1 = 0.04499	0.4007
293.15 K, m1 = 0.04668	0.4081
293.15 K, m1 = 0.0483	0.4165
293.15 K, m1 = 0.04986	0.4238
293.15 K, m1 = 0.05136	0.4302
293.15 K, m1 = 0.05281	0.436
293.15 K, m1 = 0.0542	0.4419
293.15 K, m1 = 0.05554	0.4484
293.15 K, m1 = 0.05683	0.4533
293.15 K, m1 = 0.05808	0.4587
293.15 K, m1 = 0.05929	0.4642
293.15 K, m1 = 0.06045	0.4689
293.15 K, m1 = 0.06158	0.4733
293.15 K, m1 = 0.06267	0.4778
298.15 K, m1 = 0.00394	0.04358
298.15 K, m1 = 0.00765	0.1152
298.15 K, m1 = 0.01115	0.1707
298.15 K, m1 = 0.01445	0.2175
298.15 K, m1 = 0.01541	0.2303
298.15 K, m1 = 0.01634	0.2425
298.15 K, m1 = 0.01727	0.2535
298.15 K, m1 = 0.01818	0.2637
298.15 K, m1 = 0.01907	0.2737
298.15 K, m1 = 0.01995	0.2808
298.15 K, m1 = 0.02081	0.2903
298.15 K, m1 = 0.02167	0.2984
298.15 K, m1 = 0.0225	0.306
298.15 K, m1 = 0.02333	0.3152
298.15 K, m1 = 0.02414	0.3211
298.15 K, m1 = 0.02494	0.3283
298.15 K, m1 = 0.02573	0.3337
298.15 K, m1 = 0.02651	0.3387
298.15 K, m1 = 0.02727	0.3443
298.15 K, m1 = 0.02802	0.349
298.15 K, m1 = 0.02877	0.3546
298.15 K, m1 = 0.0295	0.36
298.15 K, m1 = 0.03022	0.3649
298.15 K, m1 = 0.0314	0.3728
298.15 K, m1 = 0.03255	0.382
298.15 K, m1 = 0.03367	0.3883
298.15 K, m1 = 0.03477	0.3965
298.15 K, m1 = 0.03689	0.4084
298.15 K, m1 = 0.03892	0.4221
298.15 K, m1 = 0.04086	0.4336
298.15 K, m1 = 0.04272	0.4435
298.15 K, m1 = 0.0445	0.4525
298.15 K, m1 = 0.04621	0.4635
298.15 K, m1 = 0.04785	0.4712
298.15 K, m1 = 0.04943	0.4799
298.15 K, m1 = 0.05094	0.489
298.15 K, m1 = 0.0524	0.4951
298.15 K, m1 = 0.05381	0.5029
298.15 K, m1 = 0.05517	0.5103
298.15 K, m1 = 0.05648	0.5162
298.15 K, m1 = 0.05774	0.5226
303.15 K, m1 = 0.00388	0.06075
303.15 K, m1 = 0.00752	0.1306
303.15 K, m1 = 0.01257	0.2181
303.15 K, m1 = 0.01415	0.2351
303.15 K, m1 = 0.01508	0.2505
303.15 K, m1 = 0.01599	0.2653
303.15 K, m1 = 0.01688	0.2779
303.15 K, m1 = 0.01776	0.2879
303.15 K, m1 = 0.01863	0.2986
303.15 K, m1 = 0.01948	0.3128
303.15 K, m1 = 0.02031	0.321
303.15 K, m1 = 0.02194	0.3372
303.15 K, m1 = 0.02274	0.3504
303.15 K, m1 = 0.02352	0.3547
303.15 K, m1 = 0.02429	0.3646
303.15 K, m1 = 0.02505	0.3691
303.15 K, m1 = 0.02652	0.3816
303.15 K, m1 = 0.02725	0.3867
303.15 K, m1 = 0.02796	0.3925
303.15 K, m1 = 0.02866	0.398
303.15 K, m1 = 0.02935	0.4046
303.15 K, m1 = 0.03003	0.4126
303.15 K, m1 = 0.03114	0.4192
303.15 K, m1 = 0.03222	0.4277
303.15 K, m1 = 0.03327	0.4359
303.15 K, m1 = 0.0343	0.4466
303.15 K, m1 = 0.03531	0.4517
303.15 K, m1 = 0.03629	0.4591
303.15 K, m1 = 0.03725	0.4681
303.15 K, m1 = 0.03819	0.4739
303.15 K, m1 = 0.03911	0.4794
303.15 K, m1 = 0.04	0.4859
303.15 K, m1 = 0.04174	0.4978
303.15 K, m1 = 0.0434	0.5113
303.15 K, m1 = 0.04498	0.5211
303.15 K, m1 = 0.04651	0.5314
303.15 K, m1 = 0.04797	0.5413
303.15 K, m1 = 0.04938	0.5513
303.15 K, m1 = 0.05073	0.56
303.15 K, m1 = 0.05203	0.5681
303.15 K, m1 = 0.05328	0.5759
303.15 K, m1 = 0.05448	0.5835
308.15 K, m1 = 0.00358	0.06093
308.15 K, m1 = 0.00694	0.1384
308.15 K, m1 = 0.01011	0.2008
308.15 K, m1 = 0.01163	0.23
308.15 K, m1 = 0.01311	0.2551
308.15 K, m1 = 0.01539	0.2922
308.15 K, m1 = 0.01622	0.3053
308.15 K, m1 = 0.01704	0.3166
308.15 K, m1 = 0.01784	0.3262
308.15 K, m1 = 0.01863	0.3371
